Assay results as given in the NIST ThermoML archive (doi:10.1016/j.jct.2010.06.009).

Assay: activity coefficient (dimensionless); of the first substance listed, at infinite dilution; xn = mol fraction of the nth substance listed
Conditions: 101 kPa, Liquid, Chromatography, x1 = 0

CCc1ccccc1 [ethylbenzene] + CCCC[n+]1ccccc1.O=S(=O)([N-]S(=O)(=O)C(F)(F)F)C(F)(F)F
Conditions	activity coefficient
302.8 K	2.74
312.6 K	2.75
323.3 K	2.77
333.2 K	2.77
343.2 K	2.78
353.3 K	2.78

CCc1ccccc1 [ethylbenzene] + CC[n+]1ccccc1.O=S(=O)([N-]S(=O)(=O)C(F)(F)F)C(F)(F)F
Conditions	activity coefficient
303.4 K	3.34
313.1 K	3.36
323.2 K	3.37
333.1 K	3.39
343 K	3.4
353.1 K	3.41

CCCCCCC [heptane] + CCCCC[n+]1ccccc1.O=S(=O)([N-]S(=O)(=O)C(F)(F)F)C(F)(F)F
Conditions	activity coefficient
303.2 K	16.5
312.7 K	14.6
323.4 K	12.6
333.3 K	11
343.3 K	9.35
353.3 K	7.98

CCCCCCC [heptane] + CCCC[n+]1ccccc1.O=S(=O)([N-]S(=O)(=O)C(F)(F)F)C(F)(F)F
Conditions	activity coefficient
302.8 K	21.8
312.4 K	19.4
323.2 K	16.8
333.2 K	13.8
343.3 K	11.4
353.4 K	9.35

CCCCCCC [heptane] + CC[n+]1ccccc1.O=S(=O)([N-]S(=O)(=O)C(F)(F)F)C(F)(F)F
Conditions	activity coefficient
302.8 K	29.3
313.3 K	23.1
323.1 K	18.6
333 K	14.7
342.9 K	11.8
353 K	9.37

C=CCCCC [hex-1-ene] + CCCCC[n+]1ccccc1.O=S(=O)([N-]S(=O)(=O)C(F)(F)F)C(F)(F)F
Conditions	activity coefficient
302.9 K	6.22
312.8 K	5.46
322.6 K	4.84
333.4 K	4.17
343.4 K	3.55
353.4 K	3.08

C=CCCCC [hex-1-ene] + CCCC[n+]1ccccc1.O=S(=O)([N-]S(=O)(=O)C(F)(F)F)C(F)(F)F
Conditions	activity coefficient
302.3 K	8.87
312.9 K	7.45
323 K	6.38
332.8 K	5.29
343 K	4.33
352.8 K	3.71

C=CCCCC [hex-1-ene] + CC[n+]1ccccc1.O=S(=O)([N-]S(=O)(=O)C(F)(F)F)C(F)(F)F
Conditions	activity coefficient
302.6 K	11.5
313.1 K	9.42
322.9 K	7.86
332.8 K	6.54
342.9 K	5.34
353 K	4.4

CCCCCC [hexane] + CCCCC[n+]1ccccc1.O=S(=O)([N-]S(=O)(=O)C(F)(F)F)C(F)(F)F
Conditions	activity coefficient
303.3 K	9.78
312.7 K	8.36
323.4 K	7
333.3 K	5.98
343.3 K	5.01
353.3 K	4.25

CCCCCC [hexane] + CCCC[n+]1ccccc1.O=S(=O)([N-]S(=O)(=O)C(F)(F)F)C(F)(F)F
Conditions	activity coefficient
302.8 K	11.9
312.4 K	10.4
323.2 K	8.58
332.8 K	7.59
343.3 K	5.85
353.4 K	4.75

CCCCCC [hexane] + CC[n+]1ccccc1.O=S(=O)([N-]S(=O)(=O)C(F)(F)F)C(F)(F)F
Conditions	activity coefficient
302.8 K	13.8
313.3 K	10.8
323.1 K	8.59
333 K	6.86
342.9 K	5.46
353 K	4.38

CO [methanol] + CCCCC[n+]1ccccc1.O=S(=O)([N-]S(=O)(=O)C(F)(F)F)C(F)(F)F
Conditions	activity coefficient
302.8 K	1.62
313.5 K	1.46
323.4 K	1.31
333.3 K	1.18
343.2 K	1.06
353.4 K	0.94

CO [methanol] + CCCC[n+]1ccccc1.O=S(=O)([N-]S(=O)(=O)C(F)(F)F)C(F)(F)F
Conditions	activity coefficient
302.7 K	2
313.4 K	1.73
323.1 K	1.56
333.1 K	1.39
343.1 K	1.25
353.3 K	1.12

CO [methanol] + CC[n+]1ccccc1.O=S(=O)([N-]S(=O)(=O)C(F)(F)F)C(F)(F)F
Conditions	activity coefficient
302.5 K	1.86
313.1 K	1.69
323 K	1.53
332.9 K	1.38
342.9 K	1.26
353 K	1.13

CC1CCCCC1 [methylcyclohexane] + CCCCC[n+]1ccccc1.O=S(=O)([N-]S(=O)(=O)C(F)(F)F)C(F)(F)F
Conditions	activity coefficient
303.1 K	10.2
312.7 K	9.39
323.4 K	8.48
333.3 K	7.64
343.3 K	6.84
353.3 K	6.08

CC1CCCCC1 [methylcyclohexane] + CCCC[n+]1ccccc1.O=S(=O)([N-]S(=O)(=O)C(F)(F)F)C(F)(F)F
Conditions	activity coefficient
302.8 K	14.1
312.4 K	12.7
323.2 K	11.6
333.1 K	10.1
343.3 K	8.44
353.4 K	7.2

CC1CCCCC1 [methylcyclohexane] + CC[n+]1ccccc1.O=S(=O)([N-]S(=O)(=O)C(F)(F)F)C(F)(F)F
Conditions	activity coefficient
302.8 K	17.8
313.3 K	15
323.1 K	12.8
333 K	10.8
342.9 K	9.01
353 K	7.49

CCCCCCCCC [nonane] + CCCCC[n+]1ccccc1.O=S(=O)([N-]S(=O)(=O)C(F)(F)F)C(F)(F)F
Conditions	activity coefficient
303.2 K	36
312.7 K	33.3
323.4 K	30.2
333.3 K	27.3
343.3 K	24.2
353.3 K	21.4

CCCCCCCCC [nonane] + CCCC[n+]1ccccc1.O=S(=O)([N-]S(=O)(=O)C(F)(F)F)C(F)(F)F
Conditions	activity coefficient
303.1 K	52.3
312.6 K	50
323.3 K	45.6
333.3 K	38.6
343.3 K	33.3
353.4 K	28.1

CCCCCCCCC [nonane] + CC[n+]1ccccc1.O=S(=O)([N-]S(=O)(=O)C(F)(F)F)C(F)(F)F
Conditions	activity coefficient
302.8 K	86.1
313.3 K	74.3
323.1 K	63.4
333 K	51.7
342.9 K	42.2
353 K	33.8

C=CCCCCCC [oct-1-ene] + CCCCC[n+]1ccccc1.O=S(=O)([N-]S(=O)(=O)C(F)(F)F)C(F)(F)F
Conditions	activity coefficient
303 K	14.2
312.6 K	13.2
322.6 K	12.2
333.4 K	11
343.4 K	9.95
353.4 K	9.08

C=CCCCCCC [oct-1-ene] + CCCC[n+]1ccccc1.O=S(=O)([N-]S(=O)(=O)C(F)(F)F)C(F)(F)F
Conditions	activity coefficient
302.5 K	22.3
313 K	19.7
323.2 K	18.4
332.8 K	15.7
343 K	13.6
352.9 K	11.9

C=CCCCCCC [oct-1-ene] + CC[n+]1ccccc1.O=S(=O)([N-]S(=O)(=O)C(F)(F)F)C(F)(F)F
Conditions	activity coefficient
302.6 K	36.6
313.2 K	31.5
323.2 K	27.2
332.8 K	23.7
342.9 K	19.8
353 K	16.7

CCCCCCCC [octane] + CCCCC[n+]1ccccc1.O=S(=O)([N-]S(=O)(=O)C(F)(F)F)C(F)(F)F
Conditions	activity coefficient
303.2 K	25
312.7 K	22.8
323.4 K	20.3
333.3 K	18
343.3 K	15.7
353.3 K	13.7

CCCCCCCC [octane] + CCCC[n+]1ccccc1.O=S(=O)([N-]S(=O)(=O)C(F)(F)F)C(F)(F)F
Conditions	activity coefficient
302.7 K	35.4
312.5 K	32.2
323.2 K	29
333.3 K	23.9
343.3 K	20.4
353.4 K	16.8

CCCCCCCC [octane] + CC[n+]1ccccc1.O=S(=O)([N-]S(=O)(=O)C(F)(F)F)C(F)(F)F
Conditions	activity coefficient
302.8 K	52.9
313.3 K	43.5
323.1 K	36
333 K	29.1
342.9 K	23.4
353 K	18.5

CCCCC [pentane] + CCCCC[n+]1ccccc1.O=S(=O)([N-]S(=O)(=O)C(F)(F)F)C(F)(F)F
Conditions	activity coefficient
303.3 K	5.03
312.7 K	4.17
323.4 K	3.42
333.3 K	2.89
343.3 K	2.41
353.3 K	2.07

CCCCC [pentane] + CCCC[n+]1ccccc1.O=S(=O)([N-]S(=O)(=O)C(F)(F)F)C(F)(F)F
Conditions	activity coefficient
302.8 K	5.66
312.4 K	4.83
323.2 K	3.92
333 K	3.44
343.4 K	2.66
353.4 K	2.24

CCCCC [pentane] + CC[n+]1ccccc1.O=S(=O)([N-]S(=O)(=O)C(F)(F)F)C(F)(F)F
Conditions	activity coefficient
302.7 K	5.79
313.3 K	4.5
323 K	3.59
333 K	2.92
342.9 K	2.36
352.9 K	1.95

CCCO [propan-1-ol] + CCCCC[n+]1ccccc1.O=S(=O)([N-]S(=O)(=O)C(F)(F)F)C(F)(F)F
Conditions	activity coefficient
302.8 K	2.53
313.6 K	2.23
323.4 K	2.02
333.3 K	1.84
343.3 K	1.65
353.3 K	1.49

CCCO [propan-1-ol] + CCCC[n+]1ccccc1.O=S(=O)([N-]S(=O)(=O)C(F)(F)F)C(F)(F)F
Conditions	activity coefficient
303.4 K	3.31
313.3 K	2.82
323.2 K	2.52
333.1 K	2.25
343.1 K	2.03
353 K	1.84

CCCO [propan-1-ol] + CC[n+]1ccccc1.O=S(=O)([N-]S(=O)(=O)C(F)(F)F)C(F)(F)F
Conditions	activity coefficient
302.5 K	3.56
313.1 K	3.18
323 K	2.85
332.9 K	2.57
342.9 K	2.29
353 K	2.06

Cc1ccccc1 [toluene] + CCCCC[n+]1ccccc1.O=S(=O)([N-]S(=O)(=O)C(F)(F)F)C(F)(F)F
Conditions	activity coefficient
303.1 K	1.28
312.8 K	1.3
323.3 K	1.33
333.3 K	1.34
343.3 K	1.36
353.5 K	1.36

Cc1ccccc1 [toluene] + CCCC[n+]1ccccc1.O=S(=O)([N-]S(=O)(=O)C(F)(F)F)C(F)(F)F
Conditions	activity coefficient
302.8 K	1.8
312.6 K	1.82
323.3 K	1.83
333.2 K	1.83
343.2 K	1.85
353.3 K	1.86

Cc1ccccc1 [toluene] + CC[n+]1ccccc1.O=S(=O)([N-]S(=O)(=O)C(F)(F)F)C(F)(F)F
Conditions	activity coefficient
303.6 K	2.08
313.1 K	2.09
323.2 K	2.1
333.2 K	2.11
343 K	2.12
353.3 K	2.13
